Each structure is given as a SMILES string. A value given as a limit tells only on which side of the number the result lay.

The record followed here is patent US10722637B2, “Cartridge and method for increasing myocardial function” (SeaStar Medical, Inc., priority 2012, dated 2020).

The subject of assay [1] is leukocytes in porcine blood. As to the kind of experiment: Microscopic flow chamber: leukocyte interaction with polysulfone membrane. The class given is cell-based. From the text:
A custom microscopic flow chamber system was set up to enable microscopic analysis of leukocyte interaction with the SCD membrane. The flow chamber consisted of a polycarbonate housing with an inlet and outlet for perfusion. A polysulfone membrane was affixed to the polycarbonate block with a gasket which directed shear flow. The thickness of the gasket (100 μm) along with the length (2 cm) and the width of the channel (1.5 mm) determined the volume of the flow chamber. Microscopic imaging was accomplished through an optical window made up of a cover glass affixed to the bottom of the polycarbonate block. Either isolated blood or purified leukocytes were used for this study.
Isolated blood was prone to activation from excessive handling. […] Blood passed through the flow chamber at a rate of 20 μL/min with calculated shear forces between 1-10 dynes/cm^2. […]
Microscopic analysis of cell capture events was accomplished using either a Zeiss Axiovert 200M or Axio-Observer epifluorescence microscope equipped with a microscope stage-top incubator to control environmental temperature and CO2 content. Fluorescence images were acquired with either a Zeiss MRm3 or an Icc1 camera at a frequency of 1 frame/second for 5 minutes, for analysis of leukocyte/membrane interaction, and at 1 frame/minute for 1 hour sequences, for analysis of long term leukocyte attachment. […]

The subject of assay [2] is leukocytes in human whole blood. Nature of the assay: In vitro whole blood assay of leukocyte activation. As to conditions: for CD11b: n = 3; for Lactoferrin: n = 4; for Elastase: n = 5. The class given is cell-based. The procedure: Heparinized human whole blood was added to tubes with or without lipopolysaccharide (LPS) (10 μg/mL) or formyl-Methionyl-Leucyl-Phenylalanine (fMLF, 50 nM). […] The release of IL-6, IL-8, or IL-10 was measured using commercially available ELISA kits from R&D Systems. The release of elastase was measured using a commercially available ELISA kit from Bender MedSystems. The release of lactoferrin was measured using a commercially available ELISA kit from EMD Chemicals. […] Samples were incubated for various times at 37° C. and 5% CO2. CD11b activation was measured using an FITC-conjugated mouse anti-human antibody (AbD Serotech) and evaluated on an Accuri C6 flow cytometer.

In the case of `O=C(O)CC(O)(CC(=O)O)C(=O)O` [Citrate], in assay [1] (LPS activated, low ionized calcium flow chambers), the “leukocyte attachment to polysulfone membranes during shear flow” value is on record as “statistically significant decrease”. In addition, in assay [1] (after addition of citrate (from 1.32±0.05)), the “blood iCa level” value is 0.32 ± 0.05 mmol/L. In assay [2] (Baseline), the CD11b turned out to be 7.32 ± 0.47 MFI × 10^3, the Lactoferrin is given as 1.67 ± 0.29 mg/mL and the Elastase is 0.94 ± 0.14 mg/mL. In assay [2] (Stimulated (LPS, fMLF)), this compound had a CD11b of 28.72 ± 2.95 MFI × 10^3, a Lactoferrin of 3.43 ± 0.18 mg/mL and an Elastase of 0.91 ± 0.28 mg/mL. The compound further returned an iCa levels in assay [2] (citrate treated samples (1.25 mM nontreated)) of under 0.25 mM.
